Settings: in vivo
Text: An LD₅₀ could so far not be determined.

Q: For `CC[C@H](C)[C@@H]1NC(=O)[C@H](CCCNC(=N)N)NC(=O)[C@H](CC(=O)O)NC(=O)[C@H](CCSC)NC(=O)[C@H](CCCNC(=N)N)NC(=O)CNC(=O)CNC(=O)[C@H](Cc2ccccc2)NC(=O)[C@@H](NC(=O)[C@H](CO)NC(=O)[C@H](CO)NC(=O)[C@H](CCCNC(=N)N)NC(=O)[C@H](CCCNC(=N)N)NC(=O)[C@H](CC(C)C)NC(=O)[C@@H](N)CO)CSSC[C@@H](C(=O)N[C@@H](CC(N)=O)C(=O)N[C@@H](CO)C(=O)N[C@@H](Cc2ccccc2)C(=O)N[C@@H](CCCNC(=N)N)C(=O)N[C@@H](Cc2ccc(O)cc2)C(=O)O)NC(=O)CNC(=O)[C@H](CC(C)C)NC(=O)CNC(=O)[C@H](CO)NC(=O)[C@H](CCC(N)=O)NC(=O)[C@H](C)NC(=O)CNC1=O` [alpha-hANaP, alpha-human atrial natriuretic peptide], which “side-effects to the heart and circulation system, to the bronchial system, to the liver and renal functions, to the gonads, and to the central nervous system” value is on record?
A: No serious side-effects
